Assay results as given in patent US20170281732A1, “METHODS OF TREATING MILD BRAIN INJURY” (OXEIA BIOPHARMACEUTICALS, INC., priority 2014, published 2017).
pKi: −log10 of the molar value.

Legend:
[1] = Matsumoto et al., 2001, Biochem. Biophys. Res. Commun. 284:655-659; cited from earlier work
GHS-R = GHS-R (Homo sapiens, UniProt Q92847); assay: GHS-R antagonist activity in a cell based assay (Table 4, Exemplary GHS-R Modulating Compounds)
[2] = system: rat model of Parkinson's disease; settings: cited from earlier work
ischemic brain injury = settings: in vivo; cited from earlier work
[3] = system: oxidative burst in inflammatory cells following mBI; assay: Oxidative burst in brain inflammatory cells following mBI (controlled cortical impact, DHR 123 flow cytometry); format: in vivo, C57/B6 mice; settings: subcutaneous ghrelin after mBI, compared to mBI without treatment; mice
Description: Ghrelin variant administration reduces oxidative burst in inflammatory cells following mBI. Since no well-accepted animal model exists for concussions, a very small cerebral lesion that closely mimics mBI is used as a model of mBI. C57/B6 mice anesthetized with 5% isoflurane in oxygen (1.7 L/min) are given 0.3 mg/kg buprenorphine subcutaneously for analgesia prior to infliction of the mild brain injury. Anesthesia is assessed by paw pinch reflex. After creating a burr hole through the dura with a dental drill, a lesion using a controlled cortical impactor (CCI) is used to create injury 1 mm lateral and posterior to the bregma (5.0 mm/sec at a depth of 1.0 mm).
Animals are separated into three treatment groups: 1) Sham, 2) mBI, and 3) mBI plus ghrelin variant. A variety of doses can be tested depending upon the particular ghrelin variant. For example, 1 to 50 μg at one or more time points. As one example, treatment with subcutaneous ghrelin variant: 1 dose of 10 μg following mBI and additional dose 10 μg 1 hour after. Brain tissue is harvested at 2-8 hours, preferably about 6 hours post-injury. […] The fluorescence is then measured (AFU), higher intensity means greater oxidative burst and, therefore greater concentration or amount of ROS. […] Oxidative burst, which is a marker for ROS, can be measured by respiratory burst using flow cytometry (e.g., FL1 channel with 488-nm laser).

Chain of GHS-R (Q92847 whole entry): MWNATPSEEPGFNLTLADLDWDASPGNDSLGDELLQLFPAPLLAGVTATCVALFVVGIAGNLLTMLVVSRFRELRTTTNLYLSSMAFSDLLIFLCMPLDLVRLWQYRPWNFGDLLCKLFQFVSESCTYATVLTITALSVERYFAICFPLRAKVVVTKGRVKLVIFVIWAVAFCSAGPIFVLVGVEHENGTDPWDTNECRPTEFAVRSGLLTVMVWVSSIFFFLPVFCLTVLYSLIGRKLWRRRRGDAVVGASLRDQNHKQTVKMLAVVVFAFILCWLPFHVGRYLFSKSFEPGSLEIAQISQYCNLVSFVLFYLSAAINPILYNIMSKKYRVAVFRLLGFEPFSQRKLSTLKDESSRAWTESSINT

Compound: CCCCCCCCOC[C@H](NC(=O)CCCCN)C(=O)N[C@@H](Cc1ccccc1)C(=O)N[C@@H](CC(C)C)C(=O)NCCN [5-aminopentanoyl-Ser(Octyl)-Phe-Leu-aminoethylamide]
- ghrelin activity [1]: potent ghrelin activity

Compound: CCN(CC)CCCS(=O)(=O)N[C@H](CCc1ccccc1)c1nc(-c2ccc3nccn3c2)n[nH]1 [Compound 134, 3-Diethylamino-propane-1-sulfonic acid {(R)-1-[5-(1H-imidazo[1,2,-a]pyridin-6-yl)-2H-[1,2,4]triazol-3-yl]-3-phenyl-propyl}-amide]
- pKi (GHS-R): 6.30 to 7.00

Compound: C=CC[C@]12CCCN1C(=O)CNC2=O [NNZ-2591, cyclo-L-glycyl-L-2-allylproline]
- motor function [2]: improves motor function
- neuroprotection after ischemic brain injury (ischemic brain injury): neuroprotective

Compound: Ghrelin (GSSFLSPEHQRVQQRKESKKPPAKLQPR)
- Oxidative burst as quantified by Arbitrary Fluorescence Units (AFU) [3]: reduced the oxidative burst compared to mBI
